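Briefly, cells in 96-well plates were exposed to five compound concentrations for 48 h, and endpoints were estimated by linear interpolation. GI50: concentration for 50% inhibition of growth.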 Calls of active or inactive are those of the source. Cut-off read from the data, not from the text of the source: active = GI50 up to about 1.1 µM and inactive = higher.
Key:
Experiment in all cases: growth of human tumour cells (NCI), 48 h
[1] = test system: COLO 205
[2] = test system: HCC 2998
[3] = test system: HCT-15
[4] = test system: M14
[5] = test system: MOLT-4
[6] = test system: NCI-H226
[7] = test system: OVCAR-4
[8] = test system: OVCAR-5
[9] = test system: RPMI-8226
[10] = test system: SNB-75
[11] = test system: SW-620
[12] = test system: TK-10
[13] = test system: UO-31
[14] = test system: SR

SMILES | GI50 [1] | GI50 [2] | GI50 [3] [µM] | GI50 [4] | GI50 [5] | GI50 [6] | GI50 [7] | GI50 [8] | GI50 [9] | GI50 [10] | GI50 [11] | GI50 [12] | GI50 [13] | GI50 [14]
CCOc1ccc2c(c1)[n+]([O-])c(-c1nc3ccccc3s1)c(N)[n+]2[O-] | > 100 µM (inactive) | 96.6 µM (inactive) | 49.5 | 60.7 µM (inactive) | 36.7 µM (inactive) | 45.4 µM (inactive) | 65.5 µM (inactive) | > 100 µM (inactive) | 44.3 µM (inactive) | 57.4 µM (inactive) | 86.7 µM (inactive) | > 100 µM (inactive) | 31.3 µM (inactive) | –
O=C(O)c1ccccc1/N=N/c1ccc2oc(=O)c(C(=O)Nc3ccccc3)cc2c1 | 30.3 µM (inactive) | – | 32.7 | 47.9 µM (inactive) | 32.8 µM (inactive) | 25.7 µM (inactive) | – | – | 19.1 µM (inactive) | 33 µM (inactive) | 49.7 µM (inactive) | 61.5 µM (inactive) | 37.1 µM (inactive) | –
COC(=O)Cc1cc(=O)oc2c1C(=O)CCC2 | > 100 µM (inactive) | > 100 µM (inactive) | > 100 | > 100 µM (inactive) | > 100 µM (inactive) | > 100 µM (inactive) | > 100 µM (inactive) | > 100 µM (inactive) | > 100 µM (inactive) | 12.1 µM (inactive) | > 100 µM (inactive) | > 100 µM (inactive) | 59.2 µM (inactive) | –
Cc1c(C(=O)/C=C/c2c(Cl)cccc2Cl)c(=O)n(-c2ccccc2)n1C | 13.9 µM (inactive) | 23 µM (inactive) | 19.5 | – | 5.38 µM (inactive) | 21.3 µM (inactive) | – | 71.8 µM (inactive) | – | – | 7 µM (inactive) | 54.7 µM (inactive) | 31.8 µM (inactive) | –
CCCN(CCCN)/[N+]([O-])=N\O | > 100 µM (inactive) | > 100 µM (inactive) | > 100 | > 100 µM (inactive) | > 100 µM (inactive) | > 100 µM (inactive) | > 100 µM (inactive) | > 100 µM (inactive) | > 100 µM (inactive) | > 100 µM (inactive) | > 100 µM (inactive) | – | > 100 µM (inactive) | > 100 µM (inactive)
C[S+](C)CCOC(=O)C(=[N+]=[N-])c1ccc([N+](=O)[O-])cc1 | > 100 µM (inactive) | > 100 µM (inactive) | > 100 | > 100 µM (inactive) | > 100 µM (inactive) | > 100 µM (inactive) | > 100 µM (inactive) | > 100 µM (inactive) | > 100 µM (inactive) | > 100 µM (inactive) | > 100 µM (inactive) | > 100 µM (inactive) | > 100 µM (inactive) | –
COC1(OC)C(N(C)C)=C(Cl)C(=O)/C1=C/C=O | > 100 µM (inactive) | > 100 µM (inactive) | 98.9 | > 100 µM (inactive) | > 100 µM (inactive) | > 100 µM (inactive) | > 100 µM (inactive) | > 100 µM (inactive) | 61 µM (inactive) | – | 97.1 µM (inactive) | > 100 µM (inactive) | > 100 µM (inactive) | 57.3 µM (inactive)
COC1OC(C)C(O)CC1OS(=O)(=O)c1ccc(C)cc1 (stereo not given) | > 100 µM (inactive) | – | > 100 | > 100 µM (inactive) | > 100 µM (inactive) | > 100 µM (inactive) | > 100 µM (inactive) | > 100 µM (inactive) | > 100 µM (inactive) | 37.9 µM (inactive) | > 100 µM (inactive) | > 100 µM (inactive) | > 100 µM (inactive) | –
CC(C)(C)c1cc(C(P(=O)(O)O)P(=O)(O)O)cc(C(C)(C)C)c1O | – | > 100 µM (inactive) | > 100 | > 100 µM (inactive) | > 100 µM (inactive) | > 100 µM (inactive) | > 100 µM (inactive) | > 100 µM (inactive) | > 100 µM (inactive) | 95.1 µM (inactive) | > 100 µM (inactive) | > 100 µM (inactive) | > 100 µM (inactive) | –
Nc1ccn(C2(CO)C=C(CO)C(O)C2O)c(=O)n1 (stereo not given) | > 25.8 µM (inactive) | > 25.8 µM (inactive) | > 25.8 | > 25.8 µM (inactive) | > 25.8 µM (inactive) | > 25.8 µM (inactive) | > 25.8 µM (inactive) | – | > 25.8 µM (inactive) | > 25.8 µM (inactive) | > 25.8 µM (inactive) | > 25.8 µM (inactive) | > 25.8 µM (inactive) | > 25.8 µM (inactive)
COc1cc(O)c2c(c1)C(=O)C1=C(C2=O)C(O)C[C@@](C)(O)C1 (stereo not given in full) | 0.264 µM (active) | 1.47 µM (inactive) | 0.358 | 0.871 µM (active) | 2.22 µM (inactive) | 5.82 µM (inactive) | 1.51 µM (inactive) | 9.95 µM (inactive) | 1.86 µM (inactive) | 3.41 µM (inactive) | 0.441 µM (active) | 1.98 µM (inactive) | 2.67 µM (inactive) | 2.4 µM (inactive)

— ChEMBL document CHEMBL1201862, “PubChem BioAssay data set” (2004)
